Measured values from patent publication US7678784B2, “Oxime-containing macrocyclic acyl guanidines as β-secretase inhibitors” (Bristol-Myers Squibb Company, priority 2006, dated 2010).

Test system: not given
Experiment: not given
Details: from C=CCCCCN(CC(=O)Nc1c(Cl)cc(CNC(=NC(=O)CC(=NOCC)c2ccc(OCC=C)cc2)NC(=O)OC(C)(C)C)cc1Cl)C(=O)OC(C)(C)C; rcm bond; Grubbs 1st generation catalyst; dichloromethane; 2.93 mM; 65.0 °C; 2.0 h

SMILES | ring closure, yield of all isomers
CCON=C1CC(=O)N=C(NC(=O)OC(C)(C)C)NCc2cc(Cl)c(c(Cl)c2)NC(=O)CN(C(=O)OC(C)(C)C)CCCCC=CCOc2ccc1cc2 | 80.5%

Same assay, conditions: from C=CCCCN(CC(=O)Nc1c(Cl)cc(CNC(=NC(=O)CC(=NOCC)c2ccc(OCC=C)cc2)NC(=O)OC(C)(C)C)cc1Cl)C(=O)OC(C)(C)C; rcm bond; Grubbs 1st generation catalyst; dichloromethane; 2.62 mM; 65.0 °C; 1.5 h

SMILES | ring closure, yield of all isomers
CCON=C1CC(=O)N=C(NC(=O)OC(C)(C)C)NCc2cc(Cl)c(c(Cl)c2)NC(=O)CN(C(=O)OC(C)(C)C)CCCC=CCOc2ccc1cc2 | 82.9%

Same assay, conditions: from C=CCCN(CC(=O)Nc1c(Cl)cc(CNC(=NC(=O)CC(=NOCC)c2ccc(OCC=C)cc2)NC(=O)OC(C)(C)C)cc1Cl)C(=O)OC(C)(C)C; rcm bond; Grubbs 1st generation catalyst; dichloromethane; 3.0 mM; 65.0 °C; 4.0 h

SMILES | ring closure, yield of all isomers
CCON=C1CC(=O)N=C(NC(=O)OC(C)(C)C)NCc2cc(Cl)c(c(Cl)c2)NC(=O)CN(C(=O)OC(C)(C)C)CCC=CCOc2ccc1cc2 | 69.1%

Same assay, conditions: from C=CCOc1ccc(C(CC(=O)N=C(NCc2cc(Cl)c(NC(=O)CN(CC=C)C(=O)OC(C)(C)C)c(Cl)c2)NC(=O)OC(C)(C)C)=NOCC)cc1; rcm bond; Grubbs 1st generation catalyst; dichloromethane; 2.85 mM; 65.0 °C; 4.0 h

SMILES | ring closure, yield of all isomers
CCON=C1CC(=O)N=C(NC(=O)OC(C)(C)C)NCc2cc(Cl)c(c(Cl)c2)NC(=O)CN(C(=O)OC(C)(C)C)CC=CCOc2ccc1cc2 | 82.8%

Target: T1, BACE1 enzyme (Homo sapiens, UniProt P56817)
T1 construct: The HEK293-9B.A1 cell line, which overexpresses the BACE1 enzyme, was derived from HEK293 cells; endogenous in cells; washed 48,000 x g pellet of cell homogenate
T1 sequence (P56817 46-501): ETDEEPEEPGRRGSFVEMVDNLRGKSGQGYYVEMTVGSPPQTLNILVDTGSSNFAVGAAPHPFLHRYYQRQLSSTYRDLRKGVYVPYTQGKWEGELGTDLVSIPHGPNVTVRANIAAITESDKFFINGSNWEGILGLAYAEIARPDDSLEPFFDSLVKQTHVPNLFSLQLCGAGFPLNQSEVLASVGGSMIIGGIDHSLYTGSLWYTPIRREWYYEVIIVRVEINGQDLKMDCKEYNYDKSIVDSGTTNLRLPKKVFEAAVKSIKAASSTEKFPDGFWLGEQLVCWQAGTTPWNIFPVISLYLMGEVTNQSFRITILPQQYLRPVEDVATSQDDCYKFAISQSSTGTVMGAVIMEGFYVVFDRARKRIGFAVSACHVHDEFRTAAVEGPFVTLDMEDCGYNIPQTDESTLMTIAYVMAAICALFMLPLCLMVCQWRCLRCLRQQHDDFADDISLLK
Experiment: Radioligand displacement assay with a radiolabeled BACE inhibitor on HEK293-9B.A1 cell homogenate
Assay type: binding
Details: displacement of 1 nM tritiated radioligand, HEK293-9B.A1 homogenate, pH 5.0, 1.5 hr at 25° C.; read-out: Activity Rating (Activity based on IC50 values)
Excerpt: There are a number of methods by which inhibitors of the BACE enzyme can be identified experimentally. The enzyme can be obtained from membrane samples from natural tissues or cultured cells or can be expressed recombinantly in a host cell by well known methods of molecular biology. The whole enzyme or a portion thereof can be expressed, for example, in bacterial, insect or mammalian cells to obtain a catalytically active enzyme species. The enzymatic activity and/or ligand binding capability of the enzyme can be assessed within these membrane samples, or the enzyme can be purified to varying extents. As an illustrative example, the nucleic acid sequence encoding the pro and catalytic domains of human BACE can be appended on the 5′ end with an untranslated and signal sequence from the gene for acetylcholinesterase, and on the 3′ end with a sequence encoding a poly-histidine tag. This cDNA can then be expressed in Drosophila melanogaster S2 cells in which the signal and pro sequences of the transcribed/translated protein are removed by cellular proteases and the catalytic domain, appended by a C-terminal poly-histidine tag, is secreted out into the cellular medium. The enzyme can then be purified from the culture medium by nickel affinity chromatography by methods well known to those trained in the art [Mallender, W. et al., “Characterization of recombinant, soluble beta-secretase from an insect cell expression system.” Mol. Pharmacol. 2001, 59: 619-626]. Similar strategies for expressing and purifying various forms of BACE in bacterial, mammalian and other cell types would be known to one skilled in the art. A preferred method for determining the potency of a test compound in binding to the BACE enzyme is by monitoring the displacement of a suitable radioligand.
Radioligand displacement assays with a radiolabeled BACE inhibitor (WO 2004 013098, compound 3, where the methoxy group is substituted for C(^3H)3) were carried out using standard methods (Keen, M. (1999) in Receptor Binding Techniques (Walker, J. M. ed) p. 106 Humana Press, Totowa, N.J.). The HEK293-9B.A1 cell line, which overexpresses the BACE1 enzyme, was derived from HEK293 cells (Simmons, N. L. (1990) A cultured human renal epitheloid cell line responsive to vasoactive intestinal peptide. Exp. Physiol. 75:309-19.) by RAGE™ M (Harrington, J. J. et al. (2001) Creation of genome-wide protein expression libraries using random activation of gene expression. Nat. Biotechnol. 19:440-5; U.S. Pat. Nos. 6,410,266 and 6,361,972). T225 flask cultures of HEK293-9B.A1 were grown to 80% confluency in DMEM supplemented with 2 mM L-glutamine, 10 μg/ml penicillin, 10 μg/ml streptomycin, 3 μg/ml puromycin, 100 nM methotrexate, and 10% fetal bovine serum (Invitrogen, Carlsbad, Calif.), harvested, and resuspended at 2×10^8 cells per 10 ml of lysis buffer consisting of 50 mM HEPES pH 7.0 containing a protease inhibitor cocktail of AEBSF 104 μM, aprotinin 80 nM, leupeptin 2 μM, bestatin 4 μM, pepstatin A 1.5 μM, and E-64 1.4 μM (0.1% of protease inhibitor cocktail P8340, Sigma-Aldrich, St. Louis, Mo.) at 4° C. The resuspended cells were homogenized using a Polytron (Brinkman, Westbury, N.Y.) at setting 6 for 10 sec., then centrifuged at 48,000×g for 10 min. The resulting pellet was washed by repeating the resuspension, homogenization and centrifugation steps. The final pellet was resuspended in buffer at 4° C. to yield a total protein concentration of 5 mg/ml, then aliquots were frozen in liquid nitrogen for further storage at −70° C. Immediately before carrying out a binding assay, an aliquot of cell homogenate was thawed and diluted to a concentration of 100 μg/ml in assay buffer consisting of 50 mM HEPES pH 5.0 and 0.1% CHAPSO. […]

SMILES | IC50
CCON=C1CC(=O)/N=C(\N)NCc2cc(Cl)c(c(Cl)c2)NC(=O)CNCC=CCOc2ccc1cc2 (single isomer, unassigned; isomer a) [Example 1, Isomer A of 4-amino-23,26-dichloro-13-oxa-3,5,18,21-tetraazatricyclo[20.2.2.2^9,12]octacosa-1(24),4,9,11,15,22,25,27-octaene-6,8,20-trione 8-(O-ethyloxime)] | > 50 nM
CCON=C1CC(=O)N=C(N)NCc2cc(Cl)c(c(Cl)c2)NC(=O)CNCCC=CCOc2ccc1cc2 (single isomer, unassigned; isomer a) [Example 4, Isomer A of 4-amino-24,27-dichloro-13-oxa-3,5,19,22-tetraazatricyclo-[21.2.2.29,12]nonacosa-1(25),4,9,11,15,23,26,28-octaene-6,8,21-trione 8-(O-ethyloxime)] | 5 to 50 nM
CCON=C1CC(=O)N=C(N)NCc2cc(Cl)c(c(Cl)c2)NC(=O)CNCCCC=CCOc2ccc1cc2 (single isomer, unassigned; isomer a) [Example 7, Isomer A of 4-amino-25,28-dichloro-13-oxa-3,5,20,23-tetraazatricyclo[22.2.2.29,12]triaconta-1(26),4,9,11,15,24,27,29-octaene-6,8,22-trione 8-(O-ethyloxime)] | < 5 nM
CCON=C1CC(=O)/N=C(\N)NCc2cc(Cl)c(c(Cl)c2)NC(=O)CNCC=CCOc2ccc1cc2 (single isomer, unassigned; isomer b) [Example 2, Isomer B of 4-amino-23,26-dichloro-13-oxa-3,5,18,21-tetraazatricyclo-[20.2.2.2^9,12]octacosa-1(24),4,9,11,15,22,25,27-octaene-6,8,20-trione 8-(O-ethyloxime)] | > 50 nM
CCON=C1CC(=O)N=C(N)NCc2cc(Cl)c(c(Cl)c2)NC(=O)CNCCC=CCOc2ccc1cc2 (single isomer, unassigned; isomer b) [Example 5, Isomer B of 4-amino-24,27-dichloro-13-oxa-3,5,19,22-tetraazatricyclo-[21.2.2.29,12]nonacosa-1(25),4,9,11,15,23,26,28-octaene-6,8,21-trione 8-(O-ethyloxime)] | 5 to 50 nM
CCON=C1CC(=O)N=C(N)NCc2cc(Cl)c(c(Cl)c2)NC(=O)CNCCCC=CCOc2ccc1cc2 (single isomer, unassigned; isomer b) [Example 8, Isomer B of 4-amino-25,28-dichloro-13-oxa-3,5,20,23-tetraazatricyclo-[22.2.2.29,12]triaconta-1(26),4,9,11,15,24,27,29-octaene-6,8,22-trione 8-(O-ethyloxime)] | < 5 nM
CCON=C1CC(=O)N=C(N)NCc2cc(Cl)c(c(Cl)c2)NC(=O)CNCCCCOc2ccc1cc2 [Example 3, 4-Amino-23,26-dichloro-13-oxa-3,5,18,21-tetraazatricyclo[20.2.2.2^9,12]-octacosa-1(24),4,9,11,22,25,27-heptaene-6,8,20-trione 8-(O-ethyloxime)] | 5 to 50 nM
CCON=C1CC(=O)N=C(N)NCc2cc(Cl)c(c(Cl)c2)NC(=O)CNCCCCCOc2ccc1cc2 [Example 6] | 5 to 50 nM
CCON=C1CC(=O)N=C(N)NCc2cc(Cl)c(c(Cl)c2)NC(=O)CNCCCCCCOc2ccc1cc2 [Example 9, 4-Amino-25,28-dichloro-13-oxa-3,5,20,23-tetraazatricyclo[22.2.2.2^9,12]-triaconta-1(26),4,9,11,24,27,29-heptaene-6,8,22-trione 8-(O-ethyloxime)] | < 5 nM
CCON=C1CC(=O)N=C(N)NCc2cc(Cl)c(c(Cl)c2)NC(=O)CNCCCCC=CCOc2ccc1cc2 [Example 10, 4-Amino-26,29-dichloro-13-oxa-3,5,21,24-tetraazatricyclo-[23.2.2.2^9,12]hentriaconta-1(27),4,9,11,15,25,28,30-octaene-6,8,23-trione 8-(O-ethyloxime)] | < 5 nM
CCON=C1CC(=O)N=C(N)NCc2cc(Cl)c(c(Cl)c2)NC(=O)CNCCCCCCCOc2ccc1cc2 [Example 11, 4-Amino-26,29-dichloro-13-oxa-3,5,21,24-tetraazatricyclo-[23.2.2.2^9,12]hentriaconta-1(27),4,9,11,25,28,30-heptaene-6,8,23-trione 8-(O-ethyloxime)] | < 5 nM
